Test results taken from the CheMixHub drug solubility set.

Test: xn = mol fraction of the nth substance listed, in the solute-free solvent

CC1=NNC(=O)N(N=Cc2cccnc2)C1 + CN1CCCC1=O + CC(C)O
solubility (g/100 g solution)
Conditions | 278.15 K | 283.15 K | 288.15 K | 293.15 K | 298.15 K | 303.15 K | 308.15 K | 313.15 K | 318.15 K
x2 = 0.1316 | 0.161 | 0.188 | 0.221 | 0.258 | 0.3 | 0.347 | 0.402 | 0.461 | 0.529
x2 = 0.2878 | 0.235 | 0.273 | 0.319 | 0.37 | 0.429 | 0.494 | 0.57 | 0.652 | 0.746
x2 = 0.4763 | 0.292 | 0.339 | 0.395 | 0.457 | 0.529 | 0.608 | 0.701 | 0.801 | 0.914
x2 = 0.708 | 0.333 | 0.386 | 0.449 | 0.519 | 0.601 | 0.689 | 0.794 | 0.906 | 1.03

O=c1cc(CBr)c2ccccc2[nH]1 + CC(C)O + O
solubility (g/100 g solution)
Conditions | 278.15 K | 283.15 K | 288.15 K | 293.15 K | 298.15 K | 303.15 K | 308.15 K | 313.15 K | 318.15 K
x2 = 0.03225 | 0.0121 | 0.0159 | 0.0207 | 0.0271 | 0.0355 | 0.0446 | 0.057 | 0.0718 | 0.0897
x2 = 0.06974 | 0.0203 | 0.0259 | 0.0329 | 0.0413 | 0.0516 | 0.0641 | 0.079 | 0.0958 | 0.119
x2 = 0.1139 | 0.03 | 0.0369 | 0.0456 | 0.0556 | 0.0685 | 0.0827 | 0.099 | 0.118 | 0.14
x2 = 0.1666 | 0.0397 | 0.0483 | 0.0576 | 0.0694 | 0.082 | 0.0986 | 0.115 | 0.136 | 0.158
x2 = 0.2307 | 0.0498 | 0.0596 | 0.0697 | 0.0834 | 0.0971 | 0.113 | 0.131 | 0.151 | 0.173
x2 = 0.3103 | 0.0585 | 0.0689 | 0.0799 | 0.0928 | 0.106 | 0.123 | 0.141 | 0.161 | 0.18
x2 = 0.4117 | 0.0623 | 0.0721 | 0.0833 | 0.0972 | 0.112 | 0.127 | 0.144 | 0.163 | 0.184
x2 = 0.5454 | 0.065 | 0.0751 | 0.0871 | 0.1 | 0.114 | 0.13 | 0.147 | 0.164 | 0.185
x2 = 0.7297 | 0.0639 | 0.0739 | 0.0847 | 0.0962 | 0.11 | 0.124 | 0.14 | 0.158 | 0.176

COC(=O)Nc1nc2ccccc2[nH]1 + CCO + O
solubility (g/100 g solution)
Conditions | 278.15 K | 283.15 K | 288.15 K | 293.15 K | 298.15 K | 303.15 K | 308.15 K | 313.15 K | 318.15 K
x2 = 0.0417 | 0.00112 | 0.00135 | 0.00165 | 0.00201 | 0.00246 | 0.00289 | 0.00343 | 0.00403 | 0.00475
x2 = 0.08923 | 0.00223 | 0.00272 | 0.0034 | 0.00411 | 0.00508 | 0.00599 | 0.00715 | 0.00849 | 0.01
x2 = 0.1435 | 0.00325 | 0.00396 | 0.00501 | 0.00619 | 0.00769 | 0.0092 | 0.0111 | 0.0133 | 0.0158
x2 = 0.2067 | 0.00379 | 0.00471 | 0.00609 | 0.00761 | 0.00949 | 0.0116 | 0.0142 | 0.0172 | 0.0207
x2 = 0.2813 | 0.00391 | 0.00497 | 0.00649 | 0.00846 | 0.0105 | 0.013 | 0.0162 | 0.0199 | 0.0243
x2 = 0.3701 | 0.00383 | 0.0049 | 0.00658 | 0.00849 | 0.011 | 0.0138 | 0.0174 | 0.0219 | 0.0271
x2 = 0.4762 | 0.00369 | 0.0048 | 0.00651 | 0.00862 | 0.0114 | 0.0146 | 0.0187 | 0.0237 | 0.0298
x2 = 0.6102 | 0.00358 | 0.00477 | 0.00664 | 0.00884 | 0.0118 | 0.0155 | 0.0202 | 0.0261 | 0.0332
x2 = 0.7803 | 0.0035 | 0.00477 | 0.0068 | 0.0092 | 0.0125 | 0.0167 | 0.0221 | 0.0289 | 0.0373

O=C1C=CC(=O)N1c1ccccc1Br + CCO + O
solubility (g/100 g solution)
Conditions | 278.15 K | 283.15 K | 288.15 K | 293.15 K | 298.15 K | 303.15 K | 308.15 K | 313.15 K | 318.15 K | 323.15 K
x2 = 0.04165 | 0.529 | 0.674 | 0.862 | 1.08 | 1.34 | 1.67 | 2.03 | 2.48 | 2.98 | 3.59
x2 = 0.08908 | 0.965 | 1.24 | 1.54 | 1.93 | 2.39 | 2.94 | 3.58 | 4.39 | 5.22 | 6.22
x2 = 0.1436 | 1.66 | 2.09 | 2.65 | 3.22 | 3.94 | 4.8 | 5.87 | 6.98 | 8.31 | 9.86
x2 = 0.2068 | 2.5 | 3.13 | 3.83 | 4.75 | 5.68 | 6.85 | 8.18 | 9.81 | 11.5 | 13.3
x2 = 0.2812 | 3.54 | 4.34 | 5.21 | 6.34 | 7.51 | 9.04 | 10.5 | 12.3 | 14.3 | 16.5
x2 = 0.3698 | 4.32 | 5.25 | 6.3 | 7.63 | 8.97 | 10.7 | 12.4 | 14.4 | 16.6 | 18.8
x2 = 0.4772 | 4.85 | 5.92 | 7.08 | 8.5 | 10 | 11.8 | 13.7 | 15.7 | 18.1 | 20.8
x2 = 0.6101 | 5.33 | 6.52 | 7.78 | 9.33 | 11 | 12.9 | 15.1 | 17.4 | 19.9 | 22.6
x2 = 0.7788 | 5.65 | 6.85 | 8.21 | 9.83 | 11.7 | 13.6 | 15.8 | 18.6 | 20.8 | 23.7

CC(C)C(=O)Nc1ccc([N+](=O)[O-])c(C(F)(F)F)c1 + CC(C)O + O
solubility (g/100 g solution)
Conditions | 278.15 K | 283.15 K | 288.15 K | 293.15 K | 298.15 K | 303.15 K | 308.15 K | 313.15 K | 318.15 K | 323.15 K
x2 = 0.03225 | 0.00411 | 0.00535 | 0.00694 | 0.00908 | 0.0116 | 0.0149 | 0.0187 | 0.0236 | 0.0297 | 0.0366
x2 = 0.06974 | 0.0295 | 0.0376 | 0.0488 | 0.0614 | 0.0768 | 0.0971 | 0.121 | 0.15 | 0.185 | 0.226
x2 = 0.1139 | 0.145 | 0.182 | 0.228 | 0.279 | 0.342 | 0.415 | 0.505 | 0.598 | 0.707 | 0.853
x2 = 0.1666 | 0.533 | 0.638 | 0.775 | 0.929 | 1.12 | 1.32 | 1.54 | 1.82 | 2.11 | 2.46
x2 = 0.2307 | 1.53 | 1.83 | 2.16 | 2.51 | 2.97 | 3.45 | 3.99 | 4.54 | 5.22 | 5.9
x2 = 0.3103 | 3.62 | 4.25 | 5 | 5.84 | 6.78 | 7.81 | 9.03 | 10.4 | 11.7 | 13.3
x2 = 0.4117 | 6.94 | 8.23 | 9.52 | 11.1 | 12.8 | 14.6 | 16.6 | 18.9 | 21.3 | 23.8
x2 = 0.5454 | 11.6 | 13.6 | 15.6 | 17.6 | 20.1 | 22.3 | 25 | 28.1 | 30.8 | 33.6
x2 = 0.7297 | 16.9 | 19.1 | 21.6 | 24.2 | 27.3 | 30.4 | 33 | 36.1 | 39.4 | 42.8
